In patent publication US10745382B2 (BRISTOL-MYERS SQUIBB COMPANY, priority 2015, dated 2020):
Read-outs that look alike come from different tables or passages of the source.

Target: T1, PD-1/PD-L1 (Homo sapiens, UniProt Q9NZQ7)
T1 construct: made in house; host or cells: HEK293T
Assay: PD-1/PD-L1 Homogenous Time-Resolved Fluorescence (HTRF) binding assay
Details: PD-L1-His 10 nM, PD-1-Ig 20 nM, read-out: Range or IC50
In short: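 dPBS + 0.1% BSA + 0.05% Tween-20 buffer; Eu-cryptate anti-Ig 1 nM final, APC anti-His 20 nM final; HTRF read. Counter-assays: PD-1-Ig/PD-L2-His 20 & 5 nM, CD80-His/PD-L1-Ig 100 & 10 nM.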

T1 sequence (Q9NZQ7 with tags, fused parts or gaps): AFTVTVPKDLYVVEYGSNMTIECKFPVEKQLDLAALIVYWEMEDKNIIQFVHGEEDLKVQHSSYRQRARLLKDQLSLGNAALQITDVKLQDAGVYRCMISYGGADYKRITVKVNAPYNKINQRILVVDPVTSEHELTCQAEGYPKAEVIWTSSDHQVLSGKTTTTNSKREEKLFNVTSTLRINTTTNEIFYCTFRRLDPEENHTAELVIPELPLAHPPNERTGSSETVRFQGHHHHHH

SMILES | IC50 (value given as range class) | IC50 (numeric IC50)
Cc1c(COc2cc(OCc3cncc(C#N)c3)c(CN(C)CCC(N)=O)cc2Cl)cccc1-c1cccc(OCCCN(C)CCC(N)=O)c1C [Example 2266, 3-((3-(3′-((4-(((3-amino-3-oxopropyl)(methyl)amino)methyl)-2-chloro-5-((5-cyanopyridin-3-yl)methoxy)phenoxy)methyl)-2,2′-dimethylbiphenyl-3-yloxy)propyl)(methyl)amino)propanamide] | 0.21 to 10 nM | –
CC(=O)NC1CCN(CCCOc2cccc(-c3cccc(COc4cc(O)c(CO)cc4Cl)c3C)c2Cl)C1 (stereo not drawn) [Example 2020, N-(1-(3-((2-chloro-3′-((2-chloro-5-hydroxy-4-(hydroxymethyl)phenoxy)methyl)-2′-methyl-[1,1′-biphenyl]-3-yl)oxy)propyl)pyrrolidin-3-yl)acetamide] | – | 63 nM
Cc1c(COc2cc(OCc3cncc(C#N)c3)c(CN3CC(=O)NC(=O)C3)cc2Cl)cccc1-c1cccc(OCCCN2CC[C@@H](O)C2)c1C [Example 2329, (R)-5-((4-chloro-2-((3,5-dioxopiperazin-1-yl)methyl)-5-((3′-(3-(3-hydroxypyrrolidin-1-yl)propoxy)-2,2′-dimethyl-[1,1′-biphenyl]-3-yl)methoxy)phenoxy)methyl)nicotinonitrile] | 0.21 to 10 nM | –
Cc1c(COc2cc(OCc3cncc(C#N)c3)c(CN[C@@](C)(CO)C(=O)O)cc2Cl)cccc1-c1ccc2c(c1C)OCCO2 [Example 3041, (2S)-2-((5-chloro-2-((5-cyanopyridin-3-yl)methoxy)-4-((2-methyl-3-(5-methyl-2,3-dihydrobenzo[b][1,4]dioxin-6-yl)benzyl)oxy)benzyl)amino)-3-hydroxy-2-methylpropanoic Acid] | 0.21 to 10 nM | –
COC(=O)C1CN(CCCOc2cccc(-c3cccc(COc4cc(OCc5cncc(S(C)(=O)=O)c5)c(CN[C@](C)(CO)C(=O)O)cc4Cl)c3C)c2C)CC1O (stereo partly drawn) [Example 1073, (2R)-2-((5-chloro-4-((3′-(3-(3-hydroxy-4-(methoxycarbonyl)pyrrolidin-1-yl)propoxy)-2,2′-dimethyl-[1,1′-biphenyl]-3-yl)methoxy)-2-((5-(methylsulfonyl)pyridin-3-yl)methoxy)benzyl)amino)-3-hydroxy-2-methylpropanoic Acid] | 0.21 to 10 nM | –
Cc1c(COCCN2CC[C@@H](O)C2)cccc1-c1cccc(COc2cc(OCc3cncc(C#N)c3)c(CN(C)C(C)(CO)CO)cc2Cl)c1C [Example 4128, (R)-5-((4-chloro-2-(((1,3-dihydroxy-2-methylpropan-2-yl)(methyl)amino)methyl)-5-((3′-((2-(3-hydroxypyrrolidin-1-yl)ethoxy)methyl)-2,2′-dimethyl-[1,1′-biphenyl]-3-yl)methoxy)phenoxy)methyl)nicotinonitrile] | 0.21 to 10 nM | –
C=CC(=O)NCCCOc1cccc(-c2cccc(COc3cc(OCc4cncc(C#N)c4)c(CN4CCCC[C@H]4C(=O)O)cc3Cl)c2C)c1 [Example 1020, (S)-1-(4-((3′-(3-acrylamidopropoxy)-2-methyl-[1,1′-biphenyl]-3-yl)methoxy)-5-chloro-2-((5-cyanopyridin-3-yl)methoxy)benzyl)piperidine-2-carboxylic Acid] | 10 to 100 nM | –
CCOC(=O)C1(CO)CCN(CCCOc2cccc(-c3cccc(COc4cc(OCc5cncc(C#N)c5)c(CN5CCC(CO)(C(=O)OCC)C5)cc4Cl)c3C)c2Cl)C1 (stereo not drawn) [Example 1102, ethyl 1-(3-((2-chloro-3′-((2-chloro-5-((5-cyanopyridin-3-yl)methoxy)-4-((3-(ethoxycarbonyl)-3-(hydroxymethyl)pyrrolidin-1-yl)methyl)phenoxy)methyl)-2′-methyl-[1,1′-biphenyl]-3-yl)oxy)propyl)-3-(hydroxymethyl)pyrrolidine-3-carboxylate] | – | 2.8 nM
Cc1c(COc2cc(OCc3cncc(C#N)c3)c(CN[C@@](C)(CO)C(=O)O)cc2Cl)cccc1-c1cccc(OCCCN2CCCC(CO)C2)c1C (stereo partly drawn) [Example 2260, (2S)-2-(5-chloro-2-((5-cyanopyridin-3-yl)methoxy)-4-((3′-(3-(3-(hydroxymethyl)piperidin-1-yl)propoxy)-2,2′-dimethylbiphenyl-3-yl)methoxy)benzylamino)-3-hydroxy-2-methylpropanoic Acid] | 0.21 to 10 nM | –
Cc1c(COc2cc(OCc3cncc(C#N)c3)c(CN3CCC[C@H]3C(=O)O)cc2Cl)cccc1-c1cccc(C(=O)N(C)C)c1C [Example 4031, (5-chloro-2-((5-cyanopyridin-3-yl)methoxy)-4-((3′-(dimethylcarbamoyl)-2,2′-dimethyl-[1,1′-biphenyl]-3-yl)methoxy)benzyl)-L-proline] | 2010 to 10000 nM | –
Cc1c(COc2cc(OCc3cncc(C#N)c3)c(C(=O)N3CCCC[C@H]3C(=O)O)cc2Cl)cccc1-c1cccc(OCCCN2CC[C@@H](O)C2)c1C [Example 2380, (S)-1-(5-chloro-2-((5-cyanopyridin-3-yl)methoxy)-4-((3′-(3-((R)-3-hydroxypyrrolidin-1-yl)propoxy)-2,2′-dimethyl-[1,1′-biphenyl]-3-yl)methoxy)benzoyl)piperidine-2-carboxylic Acid] | 10 to 100 nM | –
Cc1c(COc2cc(OCc3ccc(F)c(F)c3)c(CNC(CO)CO)cc2Cl)cccc1-c1cccc(OCCCN2CC[C@@H](O)C2)c1C [Example 4509, (R)-2-((5-chloro-2-((3,4-difluorobenzyl)oxy)-4-((3′-(3-(3-hydroxypyrrolidin-1-yl)propoxy)-2,2′-dimethyl-[1,1′-biphenyl]-3-yl)methoxy)benzyl)amino)propane-1,3-diol] | 0.21 to 10 nM | –
Cc1c(COc2cc(OCc3cncc(C#N)c3)c(CN[C@H](C(=O)O)c3ccccc3)cc2Cl)cccc1-c1cccc(OCCCN2CC[C@@H](O)C2)c1C [Example 4156, (S)-2-((5-chloro-2-((5-cyanopyridin-3-yl)methoxy)-4-((3′-(3-((R)-3-hydroxypyrrolidin-1-yl)propoxy)-2,2′-dimethyl-[1,1′-biphenyl]-3-yl)methoxy)benzyl)amino)-2-phenylacetic Acid] | 0.21 to 10 nM | –
Cc1c(COc2cc(OCc3cncc(C#N)c3)c(CNC[C@H](O)CO)cc2Cl)cccc1-c1cccc(OCCCO)c1Cl [Example 2116, (S)-5-((4-chloro-5-((2′-chloro-3′-(3-hydroxypropoxy)-2-methyl-[1,1′-biphenyl]-3-yl)methoxy)-2-(((2,3-dihydroxypropyl)amino)methyl)phenoxy)methyl)nicotinonitrile] | 0.21 to 10 nM | –

Second part, the compound after the results:

IC50 (value given as range class) | IC50 (numeric IC50) | SMILES
0.21 to 10 nM | – | Cc1c(COc2cc(OCc3cncc(C#N)c3)c(CN[C@H](CO)C(=O)O)cc2Cl)cccc1-c1cccc(OCCC(=O)N2CC[C@@H](O)C2)c1 [Example 1009, (R)-2-((5-chloro-2-((5-cyanopyridin-3-yl)methoxy)-4-((3′-(3-((R)-3-hydroxypyrrolidin-1-yl)-3-oxopropoxy)-2-methyl-[1,1′-biphenyl]-3-yl)methoxy)benzyl)amino)-3-hydroxypropanoic Acid]
0.21 to 10 nM | – | Cc1c(OCCCN2CCCCC2)cccc1-c1cccc(COc2cc(OCc3cncc(C#N)c3)c(CNC(C)(CO)CO)cc2Cl)c1Cl [Example 2308, 5-((4-chloro-5-((2-chloro-2′-methyl-3′-(3-(piperidin-1-yl)propoxy)-[1,1′-biphenyl]-3-yl)methoxy)-2-(((1,3-dihydroxy-2-methylpropan-2-yl)amino)methyl)phenoxy)methyl)nicotinonitrile]
0.21 to 10 nM | – | COC(=O)C1(O)CCN(CCCOc2cccc(-c3cccc(COc4cc(OCc5cncc(S(C)(=O)=O)c5)c(CN[C@H](CO)C(=O)O)cc4Cl)c3C)c2C)C1 (stereo partly drawn) [Example 1056, (2R)-2-((5-chloro-4-((3′-(3-(3-hydroxy-3-(methoxycarbonyl)pyrrolidin-1-yl)propoxy)-2,2′-dimethyl-[1,1′-biphenyl]-3-yl)methoxy)-2-((5-(methylsulfonyl)pyridin-3-yl)methoxy)benzyl)amino)-3-hydroxypropanoic Acid]
10 to 100 nM | – | Cc1c(COc2cc(OCc3cncc(C#N)c3)c(CN3CCCC[C@H]3C(=O)O)cc2Cl)cccc1-c1cccc(OCCCN[C@@H](Cc2ccncc2)C(=O)O)c1C [Example 2209, (2S)-1-(4-((3′-(3-((S)-1-carboxy-2-(pyridin-4-yl)ethylamino)propoxy)-2,2′-dimethylbiphenyl-3-yl)methoxy)-5-chloro-2-((5-cyanopyridin-3-yl)methoxy)benzyl)piperidine-2-carboxylic Acid]
0.21 to 10 nM | – | COC(=O)C1(O)CCN(CCCOc2cccc(-c3cccc(COc4cc(OCc5cncc(S(C)(=O)=O)c5)c(CN[C@H](CO)C(=O)O)cc4Cl)c3C)c2C)CC1 [Example 1038, (R)-2-((5-chloro-4-((3′-(3-(4-hydroxy-4-(methoxycarbonyl)piperidin-1-yl)propoxy)-2,2′-dimethyl-[1,1′-biphenyl]-3-yl)methoxy)-2-((5-(methylsulfonyl)pyridin-3-yl)methoxy)benzyl)amino)-3-hydroxypropanoic Acid]
0.21 to 10 nM | – | Cc1c(COc2cc(OCc3cncc(C#N)c3)c(CN[C@@](C)(CO)C(=O)O)cc2Cl)cccc1-c1cccc(OCCCN2CCOCC2)c1C [Example 2273, (S)-2-((5-chloro-2-((5-cyanopyridin-3-yl)methoxy)-4-((2,2′-dimethyl-3′-(3-morpholinopropoxy)-[1,1′-biphenyl]-3-yl)methoxy)benzyl)amino)-3-hydroxy-2-methylpropanoic Acid]
0.21 to 10 nM | – | Cc1c(COc2cc(OCc3cncc(C#N)c3)c(CN[C@](C)(CO)C(=O)O)cc2Cl)cccc1-c1cccc(OCCCN2CCC(CO)(C(=O)O)CC2)c1C [Example 1112, (R)-1-(3-((3′-((4-(((2-carboxy-1-hydroxypropan-2-yl)amino)methyl)-2-chloro-5-((5-cyanopyridin-3-yl)methoxy)phenoxy)methyl)-2,2′-dimethyl-[1,1′-biphenyl]-3-yl)oxy)propyl)-4-(hydroxymethyl)piperidine-4-carboxylic Acid]
